# Source: patent US12295937B2, “Psychoactive medicines and their use for treating psychiatric and neurological conditions and disorders” (Transcend Therapeutics, Inc., priority 2021, dated 2025)
# What was measured:
# [1] = target: Human serotonin 5HT2B receptor (Homo sapiens, UniProt P41595); experiment: Competitive radioligand binding to 5HT2B receptor membranes
# Method: Human serotonin 5HT2B receptor membrane preparations were divided into aliquots. On the day of the assay, membranes were diluted at 1:200 in incubation buffer. […] To each well was added 150 μL membrane preparation, 50 μL test compound, non-specific compound, or buffer alone, as well as 50 μL radioligand. The plate was incubated at 35° C. for 90 minutes with gentle agitation. […] For each concentration of drug, non-specific binding was subtracted from total binding to give specific binding. […] Ki was subsequently calculated using the ChengPrusoff equation.
# [2] = Reserpine-induced fibromyalgia model, vonFrey test; type: in vivo, rat; settings: 2C-B 10 and 20 mg/kg; 60-min post-injection
# Method: In this Example, male Sprague Dawley rats are tested in a behavioral model of FMA based on the protocol from Nakagura et al. (2009) Pain 146:26. This model uses three daily doses of reserpine (1 mg/kg, SC) or 0.5% acetic acid vehicle to reduce pain thresholds (i.e., increase pain perception) in the Von Frey Test (vFT, procedure outlined below).
# Von Frey Test (vFT) procedure: Increasing pain thresholds in this test are consistent with a reduction in pain perception. Prior to the start of dosing, rats are tested for their baseline mechanical pain threshold. For von Frey measurements, animals are placed into wire bottom cubicles with opaque Plexiglas walls, allowing access to the underside of their paws. Animals are habituated to this environment for at least 30 minutes before the start of the von Frey filament application. Static allodynia is measured using Semmes-Weinstein von Frey filaments (Stoelting, Wood Dale, IL). Mechanical allodynia is tested by touching the plantar surface of the animals' left and right hind paws with von Frey filaments which deliver a calibrated amount of force. Each von Frey filament is presented perpendicularly to the plantar surface for approximately 6 seconds of constant application in either ascending or descending strength in a modified up-and-down method (Chaplan et al. (1994) J Neurosci. Meth. 53:55). Stimulation is presented at intervals of several seconds, allowing for apparent resolution of any behavioral responses to previous stimuli. A positive response is noted if the paw is sharply withdrawn. Flinching immediately upon removal of the hair is also considered a positive response. Ambulation is considered an ambiguous response, and, in such cases, the stimulus is repeated.
# VonFrey measurements: Animals were placed into wire bottom cubicles with opaque Plexiglas walls, allowing access to the underside of their paws. […] Static allodynia was measured using Semmes-Weinstein von Frey filaments (Stoelting, Wood Dale, IL). […] The average hindpaw thresholds were determined 60-min post-injection. […]
# [3] = Rat Forced Swim Test (FST); type: in vivo
# Text: The Forced Swim Test (FST) is a classic, and the most used preclinical behavioral assay to screen compounds with antidepressant-like activity and has high predictive and face validity (Porsolt et al. (1977) Nature 266:730; Borsini and Meli (1988) Psychopharmacology 94:147). The premise of the FST is that when rats are placed into a cylinder filled with water, they will initially try to escape, but over time will become immobile. This increased immobility reflects behavioral despair, modeling a depressive-like state.
# Forced Swim Test (EST): In the FST trial, rats were placed in a circular plexiglass container filled with water, with no means of escape. Water temperature was maintained at 22-25° C. and changed for every animal. After an acclimation period, rats were timed for inactivity (failure to struggle), activity, swim time and climbing time. Day 1 consisted of a 15 min acclimation trial, and Day 2 (24 h later) consisted of the 5 min test. A time sampling procedure was employed where animals were observed every 5 sec and scored for immobility, swimming, or climbing. Fluoxetine (10 mg/kg, IP, Sigma Aldrich) or 0.9% sterile saline vehicle (vehicle 3× group) were administered 23.5, 5, and 1 h before testing in the FST. […] The experimenter was blinded to treatment.
# Forced Swim Test: In the FST trial, rats were placed in a circular plexiglass container filled with water, with no means of escape. Water temperature was maintained at 22-25° C. and changed for every animal. After an acclimation period, rats were timed for inactivity (failure to struggle), activity, swim time and climbing time. Day 1 consisted of a 15 min acclimation trial, and Day 2 (24 h later) consisted of the 5 min test. A time sampling procedure was employed where animals were observed every 5 sec and scored for immobility, swimming, or climbing. Fluoxetine (10 mg/kg, IP, Sigma Aldrich) or 0.9% sterile saline vehicle (vehicle 3× group) were administered 23.5, 5, and 1 h before testing in the FST. 2C-B (2.5, 10, or 20 mg/kg, IP, Cayman Chemical) or 0.9% saline vehicle (vehicle 1× group) were administered 30 min prior to FST testing. The experimenter was blinded to treatment.
# Drug Treatment: Fluoxetine (10 mg/kg, IP, Sigma Aldrich) or 0.9% sterile saline vehicle were administered 23.5, 5, and 1 h before testing in the FST. […] Control animals received fluoxetine alone, methylone alone, or saline vehicle.
# Forced Swim Test: In the FST trial, rats were placed in a circular plexiglass container filled with water, with no means of escape. Water temperature was maintained at 22-25° C. and changed for every animal. After an acclimation period, rats were timed for inactivity (failure to struggle), activity, swim time and climbing time. The experimenter and scorer were blind to treatment group. Day 1 consisted of a 15 min acclimation trial, and Day 2 (24 h later) consisted of the 5 min test. A time sampling procedure was employed where animals were observed every 5 sec and scored for immobility, swimming, or climbing.
# The FST was performed and scored by an experimenter blind to treatment group according to standard protocols and based on a “modified FST” procedure (Slattery and Cryan (2012) Nat Protoc, 7:1009). Briefly, rats were placed in a circular plexiglass container (29.2 cm diameter, 49.5 cm height) filled with water to a depth of 30 cm so rats could not support themselves by touching the bottom of the tank. Water was maintained at 22-25° C. and was changed for every animal. Day 1 (Training) consisted of a 15 min acclimation trial, and Day 2 (Testing, 24 h later) consisted of the 5 min test. A time sampling procedure was employed where animals were observed every 5 seconds for the duration of the test session (60 counts or 5 minutes) and scored for immobility (defined as the failure to struggle), swimming (defined as a circular movement around the tank), or climbing (defined as an upwards escape behavior). […]
# [4] = Cisplatin chemotherapy-induced peripheral neuropathy (CIPN) model, VonFrey test; type: in vivo, mouse
# Method: Methods: Male C57Bl/6 mice aged 12-16 weeks were used. Cisplatin (2.5 mg/kg) or vehicle was administered on days 1-5 and 11-15.
# Vehicle, sub-chronic 2C-B (5 mg/kg once daily days 17-23) or acute 2C-B (20 mg/kg once on day 17) was then administered IP (N=16-18/group). VonFrey testing took place on day 17 (30 min post-dose) and days 21 and 24 (pre-dose) to monitor the effects of 2C-B in cisplatin treated animals, compared with animals receiving cisplatin+vehicle or vehicle+vehicle.
# For von Frey measurements, animals were placed into wire bottom cubicles with opaque Plexiglas walls, allowing access to the underside of their paws. Animals were habituated to this environment for at least 30 minutes before the start of the von Frey filament application. Static allodynia was measured using Semmes-Weinstein von Frey filaments (Stoelting, Wood Dale, IL). Mechanical allodynia was tested by touching the plantar surface of the animals' right and left hind paws with von Frey filaments which deliver a calibrated amount of force (0.07, 0.16, 0.4, 0.6. 1.0, 2.0, 4.0, 6.0 g). Each von Frey filament was presented perpendicularly to the plantar surface for approximately 6 seconds of constant application in either ascending or descending strength in a modified up-and-down method (Chaplan et al. (1994) J Neurosci. Meth. 53:55). […]
# [5] = Open field test (OFT); type: in vivo, rat; settings: 0.5-30 mg/kg IP, 30 minutes before 30-min test
# Method: Method: Consecutive beam breaks and/or video-tracking of time spent in the center versus periphery of the open field are measured. Also measured are parameters such as distance traveled and ambulatory activity (horizontal and vertical) for the duration of the test session.
# The open field test (OFT) capitalizes on a rodent's innate fear of open spaces to assess anxiety-like behavior. More time spent in the center of an open field reflects an anxiolytic (anti-anxiety) effect.
# Locomotor activity was also measured in the OFT.
# To investigate whether MBDB has an anti-anxiety (anxiolytic) effect, rats were dosed with MBDB (0.5-30 mg/kg, IP) or vehicle (saline) and 30-minutes later were tested in the open field for 30 minutes. This anxiety test capitalizes on a rodents' innate fear of wide-open spaces and propensity to hug the walls when placed into the open field. Therefore, a drug that increases the time spent in the center of the open field has anxiolytic activity and predicts utility for treating anxiety in humans.
# [6] = Mouse fear extinction paradigm (PTSD model); type: in vivo; settings: 5 mg/kg IP, day 2
# Text: (FIG. 9A) Schematic of experimental design. A single CS-US (tone-shock) pairing on day 1 was followed by 6 CS presentations in a novel context (context B). […] On day 3, the time spent freezing to the CS was quantified. […] (FIG. 9C) No locomotor changes were observed on day 3 (t(26)=1.073, p>0.05). Data are mcan+/−SEM.
# FIGS. 10A-10B: MBDB improves fear extinction in a PTSD mouse model. A single CS-US (tone-shock) pairing on day 1 was followed by 6 conditioned stimulus (CS) presentations in a novel context (context B). MBDB or saline vehicle was injected 30 min prior to extinction training on day 2. The time spent freezing to the CS was quantified on day 2. […] Data are mean+/−SEM. N=10 for MBDB group (5 mg/kg, IP) and N=16 for saline control group. **p<0.01 vs. vehicle control group.
# Effective PTSD treatments facilitate the disassociation between a traumatic memory and the patient's fear response, making cues for the traumatic memory evoke less of a fear response. This is modeled in the mouse fear extinction paradigm (see FIG. 9A) which takes place over 3 days. […] On day 3 (extinction recall), the mice are “asked” if that tone (CS) still elicits a fearful response, as measured by the time spent freezing when the tone is presented. […]
# [7] = test system: 5-HT/5-HIAA uptake sites; settings: (±)-MBDB·HCl 25 mg/kg IP every 12 hours for 4 days; cited from earlier work
# [8] = previous reports (Hibicke 2020; Yang 2013; Tizabi 2012); cited from earlier work
# Sequence of Human serotonin 5HT2B receptor (P41595 whole entry): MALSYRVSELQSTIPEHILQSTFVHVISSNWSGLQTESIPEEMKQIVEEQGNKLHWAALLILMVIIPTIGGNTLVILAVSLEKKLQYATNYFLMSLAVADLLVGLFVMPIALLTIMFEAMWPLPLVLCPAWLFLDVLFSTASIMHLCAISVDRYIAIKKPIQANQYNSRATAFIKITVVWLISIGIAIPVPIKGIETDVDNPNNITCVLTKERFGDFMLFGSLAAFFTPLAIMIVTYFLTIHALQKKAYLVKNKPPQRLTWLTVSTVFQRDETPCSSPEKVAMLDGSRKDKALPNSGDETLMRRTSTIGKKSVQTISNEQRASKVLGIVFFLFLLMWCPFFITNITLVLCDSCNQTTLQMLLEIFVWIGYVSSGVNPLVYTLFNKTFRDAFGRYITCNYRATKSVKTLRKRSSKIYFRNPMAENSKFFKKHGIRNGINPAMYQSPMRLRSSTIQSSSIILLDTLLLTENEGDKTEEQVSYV
structure (smiles),measurement,setting,value
"CC(N)Cc1ccc2c(c1)OCO2 (stereo not shown) [MDA, reference compound]",Times greater affinity for the 5HT2B receptor compared with methylone,[1],37 times
"CNCC[C@H](Oc1cccc2ccccc12)c1cccs1 [Duloxetine, reference compound]",Animals with maximal (complete) reversal of reserpine-induced pain sensitivity,[2],44%
"CNCCC(Oc1ccc(C(F)(F)F)cc1)c1ccccc1 (stereo not shown) [fluoxetine, reference compound]",Swimming behavior,[3]; doses as worded,significantly increased swimming behavior
"COc1cc(CCN)c(OC)cc1Br [2C-B, 4-Bromo-2,5-dimethoxyphenethylamine]",Climbing behavior,[3]; doses as worded,Climbing was significantly decreased only in the high-dose group
same,Swimming behavior,[3]; doses as worded,significant increase in swimming
same,Animals with maximal (complete) reversal of reserpine-induced pain sensitivity,[2],100%
same,Effect of repeated doses,[4]; 5 mg/kg once daily days 17-23,sustained beneficial effect
same,Pain thresholds in cisplatin-treated animals,"[4]; single dose 5 or 20 mg/kg IP, day 17",Pain thresholds were significantly increased within 30 min of a single dose
"CCC(Cc1ccc2c(c1)OCO2)NC (racemic) [MBDB, N-methyl-1-(1,3-benzodioxol-5-yl)-2-aminobutane]",Increase in time spent in the center vs. control,[5],~40%
same,Extinction acquisition,[6],improved extinction acquisition on the first trial of extinction training on day 2
same,Immobility,"[3]; 5-30 mg/kg IP, 30 min before test",significantly reduced immobility
same,Serotonergic terminals in cortex and hippocampus destroyed,[7],55-60%
"CCN(CC)C(=O)[C@@H]1C=C2c3cccc4[nH]cc(c34)C[C@H]2N(C)C1 [LSD, lysergic acid-N,N-diethylamide]",Reduction in immobility in the FST,[8],38%
